Reference: the kinase profiling compilation of Christmann-Franck et al. (2016)

Key:
Experiment in all cases: KINOMEscan competition binding
Conditions in all cases: compound 10.0 µM
BRSK2 (human) = BRSK2 (human) (UniProt Q8IWQ3)
CDK16 (human) = CDK16 (human) (UniProt Q00536)
CIT (human) = CIT (human) (UniProt O14578)
CLK1 (human) = CLK1 (human) (UniProt P49759)
CLK3 (human) = CLK3 (human) (UniProt P49761)
CLK4 (human) = CLK4 (human) (UniProt Q9HAZ1)
CSNK1D (human) = CSNK1D (human) (UniProt P48730)
DAPK1 (human) = DAPK1 (human) (UniProt P53355)
DCLK3 (human) = DCLK3 (human) (UniProt Q9C098)
DMPK (human) = DMPK (human) (UniProt Q09013)
FLT3 (human) = FLT3 (human) (UniProt P36888)
[1] = test system: FLT3 (human), P36888 [D835H]
[2] = test system: FLT3 (human), P36888 [D835Y]
[3] = test system: FLT3 (human), P36888 [ITD]
[4] = test system: FLT3 (human), P36888 [K663Q]
GSK3A (human) = GSK3A (human) (UniProt P49840)
[5] = biological target: JAK1 JH2 pseudokinase (human) (UniProt P23458)
[6] = test system: KIT (human), P10721 [V559D/T670I]
MAP2K3 (human) = MAP2K3 (human) (UniProt P46734)
MAP4K2 (human) = MAP4K2 (human) (UniProt Q12851)
MAPK8 (human) = MAPK8 (human) (UniProt P45983)
MELK (human) = MELK (human) (UniProt Q14680)
MKNK1 (human) = MKNK1 (human) (UniProt Q9BUB5)
MKNK2 (human) = MKNK2 (human) (UniProt Q9HBH9)
MYLK3 (human) = MYLK3 (human) (UniProt Q32MK0)
MYLK4 (human) = MYLK4 (human) (UniProt Q86YV6)
NEK2 (human) = NEK2 (human) (UniProt P51955)
PDGFRB (human) = PDGFRB (human) (UniProt P09619)
PIM1 (human) = PIM1 (human) (UniProt P11309)
PIP5K1A (human) = PIP5K1A (human) (UniProt Q99755)
PLK4 (human) = PLK4 (human) (UniProt O00444)
PRKD1 (human) = PRKD1 (human) (UniProt Q15139)
PRKD3 (human) = PRKD3 (human) (UniProt O94806)
RIOK3 (human) = RIOK3 (human) (UniProt O14730)
RIPK4 (human) = RIPK4 (human) (UniProt P57078)
RPS6KA4 KD2 (human) = RPS6KA4 KD2 (human) (UniProt O75676)
RPS6KA6 KD2 (human) = RPS6KA6 KD2 (human) (UniProt Q9UK32)
STK11 (human) = STK11 (human) (UniProt Q15831)
STK16 (human) = STK16 (human) (UniProt O75716)
TGFBR2 (human) = TGFBR2 (human) (UniProt P37173)
TNK1 (human) = TNK1 (human) (UniProt Q13470)
ULK2 (human) = ULK2 (human) (UniProt Q8IYT8)

Chain of PLK4 (human) (O00444 whole entry, looked up): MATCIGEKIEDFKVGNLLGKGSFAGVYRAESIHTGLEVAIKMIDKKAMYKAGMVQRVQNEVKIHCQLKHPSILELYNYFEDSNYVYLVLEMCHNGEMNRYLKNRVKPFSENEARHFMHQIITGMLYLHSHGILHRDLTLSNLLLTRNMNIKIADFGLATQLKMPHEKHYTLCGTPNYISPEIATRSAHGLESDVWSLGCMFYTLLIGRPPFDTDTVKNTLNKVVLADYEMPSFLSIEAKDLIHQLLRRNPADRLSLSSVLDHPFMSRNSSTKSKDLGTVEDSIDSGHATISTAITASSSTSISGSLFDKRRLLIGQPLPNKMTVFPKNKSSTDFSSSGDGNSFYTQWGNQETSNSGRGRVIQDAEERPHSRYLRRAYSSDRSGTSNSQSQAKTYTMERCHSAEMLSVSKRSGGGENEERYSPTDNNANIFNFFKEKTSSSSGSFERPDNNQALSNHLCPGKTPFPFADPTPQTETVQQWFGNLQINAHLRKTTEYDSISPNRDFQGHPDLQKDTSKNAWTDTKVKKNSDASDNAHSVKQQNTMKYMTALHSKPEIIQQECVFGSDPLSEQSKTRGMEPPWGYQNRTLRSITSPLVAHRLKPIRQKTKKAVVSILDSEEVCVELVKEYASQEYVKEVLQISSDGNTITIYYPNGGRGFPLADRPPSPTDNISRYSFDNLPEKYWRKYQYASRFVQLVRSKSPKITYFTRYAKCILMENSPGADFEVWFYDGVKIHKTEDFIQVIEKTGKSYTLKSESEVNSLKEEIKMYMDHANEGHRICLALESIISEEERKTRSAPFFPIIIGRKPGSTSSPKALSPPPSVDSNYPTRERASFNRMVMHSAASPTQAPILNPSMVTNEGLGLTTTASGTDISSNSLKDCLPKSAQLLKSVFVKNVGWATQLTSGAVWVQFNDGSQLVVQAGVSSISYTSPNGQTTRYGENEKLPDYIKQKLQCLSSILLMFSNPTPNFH
Chain of RIOK3 (human) (O14730 whole entry, looked up): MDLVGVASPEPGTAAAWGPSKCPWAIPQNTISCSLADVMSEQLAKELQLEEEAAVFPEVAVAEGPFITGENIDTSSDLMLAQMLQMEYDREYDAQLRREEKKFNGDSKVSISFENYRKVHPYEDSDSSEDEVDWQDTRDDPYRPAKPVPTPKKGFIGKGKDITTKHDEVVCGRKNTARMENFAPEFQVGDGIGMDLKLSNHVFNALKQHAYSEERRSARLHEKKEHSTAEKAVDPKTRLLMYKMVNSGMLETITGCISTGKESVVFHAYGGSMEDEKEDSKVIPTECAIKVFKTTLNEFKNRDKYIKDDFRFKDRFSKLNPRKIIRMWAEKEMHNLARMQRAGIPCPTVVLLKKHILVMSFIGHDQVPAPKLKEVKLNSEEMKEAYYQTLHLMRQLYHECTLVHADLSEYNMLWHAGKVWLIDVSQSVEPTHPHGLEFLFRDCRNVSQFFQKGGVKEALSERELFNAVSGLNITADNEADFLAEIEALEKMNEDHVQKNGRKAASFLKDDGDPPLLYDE
Chain of KIT (human), P10721 [V559D/T670I] (P10721 whole entry V559D/T670I, looked up): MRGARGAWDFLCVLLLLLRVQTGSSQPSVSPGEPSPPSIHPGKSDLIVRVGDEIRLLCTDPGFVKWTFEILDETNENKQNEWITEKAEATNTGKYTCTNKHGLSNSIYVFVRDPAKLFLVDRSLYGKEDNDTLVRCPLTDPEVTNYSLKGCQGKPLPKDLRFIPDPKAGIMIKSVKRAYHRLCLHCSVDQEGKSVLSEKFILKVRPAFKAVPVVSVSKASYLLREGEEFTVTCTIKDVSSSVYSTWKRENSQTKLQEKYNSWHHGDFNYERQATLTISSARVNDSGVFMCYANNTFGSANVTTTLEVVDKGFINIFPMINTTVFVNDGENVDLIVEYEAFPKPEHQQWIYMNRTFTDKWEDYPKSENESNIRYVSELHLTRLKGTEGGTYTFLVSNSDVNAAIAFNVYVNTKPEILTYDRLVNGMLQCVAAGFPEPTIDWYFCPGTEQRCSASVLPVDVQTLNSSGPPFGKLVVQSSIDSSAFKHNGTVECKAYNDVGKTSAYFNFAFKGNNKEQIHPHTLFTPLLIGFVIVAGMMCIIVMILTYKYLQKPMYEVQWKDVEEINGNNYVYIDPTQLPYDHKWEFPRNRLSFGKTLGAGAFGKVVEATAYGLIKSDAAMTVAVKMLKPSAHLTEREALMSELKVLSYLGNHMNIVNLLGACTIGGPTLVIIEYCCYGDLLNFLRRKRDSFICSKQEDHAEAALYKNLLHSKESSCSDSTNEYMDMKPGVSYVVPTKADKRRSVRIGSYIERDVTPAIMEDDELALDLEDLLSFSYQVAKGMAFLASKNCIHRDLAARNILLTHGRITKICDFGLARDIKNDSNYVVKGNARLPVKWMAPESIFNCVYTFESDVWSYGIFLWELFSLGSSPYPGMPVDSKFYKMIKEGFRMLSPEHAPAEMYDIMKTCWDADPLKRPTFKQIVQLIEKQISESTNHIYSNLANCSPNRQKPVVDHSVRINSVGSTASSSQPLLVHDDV
Chain of MAPK8 (human) (P45983 whole entry, looked up): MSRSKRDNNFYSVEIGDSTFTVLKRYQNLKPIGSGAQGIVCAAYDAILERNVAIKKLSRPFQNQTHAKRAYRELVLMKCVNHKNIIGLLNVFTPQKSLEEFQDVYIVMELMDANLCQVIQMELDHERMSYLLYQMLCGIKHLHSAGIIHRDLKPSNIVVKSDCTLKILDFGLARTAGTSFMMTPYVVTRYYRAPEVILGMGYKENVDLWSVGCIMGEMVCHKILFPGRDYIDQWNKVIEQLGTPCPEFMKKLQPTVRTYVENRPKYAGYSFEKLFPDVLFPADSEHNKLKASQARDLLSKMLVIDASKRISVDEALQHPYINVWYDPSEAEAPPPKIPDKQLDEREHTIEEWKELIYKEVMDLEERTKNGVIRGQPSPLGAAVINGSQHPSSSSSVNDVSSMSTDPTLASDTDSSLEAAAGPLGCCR
Chain of PIM1 (human) (P11309 whole entry, looked up): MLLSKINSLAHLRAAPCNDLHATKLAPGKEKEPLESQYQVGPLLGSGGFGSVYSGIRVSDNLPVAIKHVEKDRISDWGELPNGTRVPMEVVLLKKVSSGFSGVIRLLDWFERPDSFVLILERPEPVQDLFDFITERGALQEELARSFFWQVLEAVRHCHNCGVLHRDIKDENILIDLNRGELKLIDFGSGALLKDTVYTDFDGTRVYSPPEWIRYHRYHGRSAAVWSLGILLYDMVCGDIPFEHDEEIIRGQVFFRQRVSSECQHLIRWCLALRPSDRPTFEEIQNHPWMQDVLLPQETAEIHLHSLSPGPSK
Chain of CLK1 (human) (P49759 whole entry, looked up): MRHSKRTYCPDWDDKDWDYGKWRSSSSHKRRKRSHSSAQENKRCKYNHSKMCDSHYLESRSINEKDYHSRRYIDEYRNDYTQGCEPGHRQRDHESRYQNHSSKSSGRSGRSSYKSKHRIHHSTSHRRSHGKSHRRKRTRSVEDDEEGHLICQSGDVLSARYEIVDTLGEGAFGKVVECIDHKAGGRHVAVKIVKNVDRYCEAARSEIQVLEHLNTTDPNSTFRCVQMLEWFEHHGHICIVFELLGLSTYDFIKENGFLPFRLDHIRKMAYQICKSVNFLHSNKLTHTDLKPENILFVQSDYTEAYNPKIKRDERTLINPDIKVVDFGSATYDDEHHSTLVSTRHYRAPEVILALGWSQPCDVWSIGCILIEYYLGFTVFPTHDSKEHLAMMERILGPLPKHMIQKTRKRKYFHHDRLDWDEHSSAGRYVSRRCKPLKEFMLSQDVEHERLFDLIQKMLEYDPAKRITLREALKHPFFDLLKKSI
Chain of MKNK1 (human) (Q9BUB5 whole entry, looked up): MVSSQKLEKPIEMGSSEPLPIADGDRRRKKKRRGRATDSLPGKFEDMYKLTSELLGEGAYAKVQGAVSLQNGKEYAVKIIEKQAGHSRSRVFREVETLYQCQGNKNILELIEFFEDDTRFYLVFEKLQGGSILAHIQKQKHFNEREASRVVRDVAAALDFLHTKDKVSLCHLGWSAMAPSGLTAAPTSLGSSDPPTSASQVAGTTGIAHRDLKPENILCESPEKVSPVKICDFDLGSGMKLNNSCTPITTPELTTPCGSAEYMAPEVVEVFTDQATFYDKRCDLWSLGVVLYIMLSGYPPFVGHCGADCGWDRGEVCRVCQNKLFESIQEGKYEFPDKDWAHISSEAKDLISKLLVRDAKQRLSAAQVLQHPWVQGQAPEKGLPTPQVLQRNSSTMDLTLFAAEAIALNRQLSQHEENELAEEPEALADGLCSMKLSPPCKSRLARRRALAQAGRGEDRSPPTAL
Chain of RPS6KA6 KD2 (human) (Q9UK32 whole entry, looked up): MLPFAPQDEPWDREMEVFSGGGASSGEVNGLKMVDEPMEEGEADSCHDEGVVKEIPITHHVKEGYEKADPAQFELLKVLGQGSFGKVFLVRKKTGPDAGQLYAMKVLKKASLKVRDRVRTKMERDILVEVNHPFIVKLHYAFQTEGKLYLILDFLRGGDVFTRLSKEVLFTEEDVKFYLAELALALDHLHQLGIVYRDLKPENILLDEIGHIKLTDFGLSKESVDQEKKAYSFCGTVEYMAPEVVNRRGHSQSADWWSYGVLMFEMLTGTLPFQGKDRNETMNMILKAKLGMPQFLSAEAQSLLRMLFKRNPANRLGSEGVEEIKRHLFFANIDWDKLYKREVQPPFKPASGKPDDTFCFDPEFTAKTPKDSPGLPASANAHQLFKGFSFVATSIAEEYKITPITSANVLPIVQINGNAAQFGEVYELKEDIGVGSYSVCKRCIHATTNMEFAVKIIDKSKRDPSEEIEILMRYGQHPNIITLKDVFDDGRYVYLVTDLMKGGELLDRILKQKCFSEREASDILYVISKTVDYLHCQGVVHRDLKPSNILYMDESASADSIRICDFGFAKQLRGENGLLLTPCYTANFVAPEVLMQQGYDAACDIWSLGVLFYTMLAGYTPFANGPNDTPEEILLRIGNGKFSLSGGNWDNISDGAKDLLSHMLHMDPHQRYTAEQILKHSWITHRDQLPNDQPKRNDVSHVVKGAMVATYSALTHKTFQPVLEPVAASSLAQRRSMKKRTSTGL

CN1CCN(c2ccc(C(=O)Nc3ncc4c(n3)N(C)c3ccccc3C(=O)N4C)cc2)CC1
kinase still bound, per cent of control (BRSK2 (human)): 100%
kinase still bound, per cent of control (CDK16 (human)): 100%
kinase still bound, per cent of control (CIT (human)): 100%
kinase still bound, per cent of control (CLK1 (human)): 100%
kinase still bound, per cent of control (CLK3 (human)): 100%
kinase still bound, per cent of control (CLK4 (human)): 100%
kinase still bound, per cent of control (CSNK1D (human)): 85%
kinase still bound, per cent of control (DAPK1 (human)): 84%
kinase still bound, per cent of control (DCLK3 (human)): 100%
kinase still bound, per cent of control (DMPK (human)): 100%
kinase still bound, per cent of control (FLT3 (human)): 100%
kinase still bound, per cent of control [1]: 100%
kinase still bound, per cent of control [2]: 79%
kinase still bound, per cent of control [3]: 100%
kinase still bound, per cent of control [4]: 100%
kinase still bound, per cent of control (GSK3A (human)): 100%
kinase still bound, per cent of control [5]: 100%
kinase still bound, per cent of control [6]: 75%
kinase still bound, per cent of control (MAP2K3 (human)): 84%
kinase still bound, per cent of control (MAP4K2 (human)): 100%
kinase still bound, per cent of control (MAPK8 (human)): 100%
kinase still bound, per cent of control (MELK (human)): 99%
kinase still bound, per cent of control (MKNK1 (human)): 100%
kinase still bound, per cent of control (MKNK2 (human)): 66%
kinase still bound, per cent of control (MYLK3 (human)): 100%
kinase still bound, per cent of control (MYLK4 (human)): 100%
kinase still bound, per cent of control (NEK2 (human)): 100%
kinase still bound, per cent of control (PDGFRB (human)): 80%
kinase still bound, per cent of control (PIM1 (human)): 100%
kinase still bound, per cent of control (PIP5K1A (human)): 99%
kinase still bound, per cent of control (PLK4 (human)): 84%
kinase still bound, per cent of control (PRKD1 (human)): 100%
kinase still bound, per cent of control (PRKD3 (human)): 90%
kinase still bound, per cent of control (RIOK3 (human)): 71%
kinase still bound, per cent of control (RIPK4 (human)): 96%
kinase still bound, per cent of control (RPS6KA4 KD2 (human)): 98%
kinase still bound, per cent of control (RPS6KA6 KD2 (human)): 100%
kinase still bound, per cent of control (STK11 (human)): 100%
kinase still bound, per cent of control (STK16 (human)): 85%
kinase still bound, per cent of control (TGFBR2 (human)): 100%
kinase still bound, per cent of control (TNK1 (human)): 92%
kinase still bound, per cent of control (ULK2 (human)): 89%

CN1C(=O)c2ccccc2N(C)c2nc(NS(=O)(=O)c3ccc(N)cc3)ncc21
kinase still bound, per cent of control (BRSK2 (human)): 100%
kinase still bound, per cent of control (CDK16 (human)): 100%
kinase still bound, per cent of control (CIT (human)): 100%
kinase still bound, per cent of control (CLK1 (human)): 100%
kinase still bound, per cent of control (CLK3 (human)): 95%
kinase still bound, per cent of control (CLK4 (human)): 100%
kinase still bound, per cent of control (CSNK1D (human)): 82%
kinase still bound, per cent of control (DAPK1 (human)): 100%
kinase still bound, per cent of control (DCLK3 (human)): 100%
kinase still bound, per cent of control (DMPK (human)): 86%
kinase still bound, per cent of control (FLT3 (human)): 100%
kinase still bound, per cent of control [1]: 95%
kinase still bound, per cent of control [2]: 87%
kinase still bound, per cent of control [3]: 100%
kinase still bound, per cent of control [4]: 100%
kinase still bound, per cent of control (GSK3A (human)): 100%
kinase still bound, per cent of control [5]: 100%
kinase still bound, per cent of control [6]: 100%
kinase still bound, per cent of control (MAP2K3 (human)): 74%
kinase still bound, per cent of control (MAP4K2 (human)): 80%
kinase still bound, per cent of control (MAPK8 (human)): 100%
kinase still bound, per cent of control (MELK (human)): 100%
kinase still bound, per cent of control (MKNK1 (human)): 100%
kinase still bound, per cent of control (MKNK2 (human)): 72%
kinase still bound, per cent of control (MYLK3 (human)): 100%
kinase still bound, per cent of control (MYLK4 (human)): 100%
kinase still bound, per cent of control (NEK2 (human)): 100%
kinase still bound, per cent of control (PDGFRB (human)): 76%
kinase still bound, per cent of control (PIM1 (human)): 100%
kinase still bound, per cent of control (PIP5K1A (human)): 100%
kinase still bound, per cent of control (PLK4 (human)): 97%
kinase still bound, per cent of control (PRKD1 (human)): 100%
kinase still bound, per cent of control (PRKD3 (human)): 100%
kinase still bound, per cent of control (RIOK3 (human)): 69%
kinase still bound, per cent of control (RIPK4 (human)): 89%
kinase still bound, per cent of control (RPS6KA4 KD2 (human)): 100%
kinase still bound, per cent of control (RPS6KA6 KD2 (human)): 96%
kinase still bound, per cent of control (STK11 (human)): 100%
kinase still bound, per cent of control (STK16 (human)): 100%
kinase still bound, per cent of control (TGFBR2 (human)): 100%
kinase still bound, per cent of control (TNK1 (human)): 100%
kinase still bound, per cent of control (ULK2 (human)): 89%

COc1cc(N2CCN(C)CC2)ccc1Nc1ncc2c(n1)Nc1ccccc1NC2=O
kinase still bound, per cent of control (BRSK2 (human)): 100%
kinase still bound, per cent of control (CDK16 (human)): 94%
kinase still bound, per cent of control (CIT (human)): 47%
kinase still bound, per cent of control (CLK1 (human)): 100%
kinase still bound, per cent of control (CLK3 (human)): 100%
kinase still bound, per cent of control (CLK4 (human)): 94%
kinase still bound, per cent of control (CSNK1D (human)): 42%
kinase still bound, per cent of control (DAPK1 (human)): 64%
kinase still bound, per cent of control (DCLK3 (human)): 98%
kinase still bound, per cent of control (DMPK (human)): 91%
kinase still bound, per cent of control (FLT3 (human)): 69%
kinase still bound, per cent of control [1]: 20%
kinase still bound, per cent of control [2]: 20%
kinase still bound, per cent of control [3]: 63%
kinase still bound, per cent of control [4]: 75%
kinase still bound, per cent of control (GSK3A (human)): 100%
kinase still bound, per cent of control [5]: 32%
kinase still bound, per cent of control [6]: 59%
kinase still bound, per cent of control (MAP2K3 (human)): 88%
kinase still bound, per cent of control (MAP4K2 (human)): 6.3%
kinase still bound, per cent of control (MAPK8 (human)): 73%
kinase still bound, per cent of control (MELK (human)): 64%
kinase still bound, per cent of control (MKNK1 (human)): 100%
kinase still bound, per cent of control (MKNK2 (human)): 69%
kinase still bound, per cent of control (MYLK3 (human)): 100%
kinase still bound, per cent of control (MYLK4 (human)): 100%
kinase still bound, per cent of control (NEK2 (human)): 84%
kinase still bound, per cent of control (PDGFRB (human)): 13%
kinase still bound, per cent of control (PIM1 (human)): 46%
kinase still bound, per cent of control (PIP5K1A (human)): 47%
kinase still bound, per cent of control (PLK4 (human)): 2.1%
kinase still bound, per cent of control (PRKD1 (human)): 64%
kinase still bound, per cent of control (PRKD3 (human)): 66%
kinase still bound, per cent of control (RIOK3 (human)): 68%
kinase still bound, per cent of control (RIPK4 (human)): 100%
kinase still bound, per cent of control (RPS6KA4 KD2 (human)): 31%
kinase still bound, per cent of control (RPS6KA6 KD2 (human)): 29%
kinase still bound, per cent of control (STK11 (human)): 100%
kinase still bound, per cent of control (STK16 (human)): 100%
kinase still bound, per cent of control (TGFBR2 (human)): 32%
kinase still bound, per cent of control (TNK1 (human)): 100%
kinase still bound, per cent of control (ULK2 (human)): 75%
